Calls of active or inactive are those of the source. No cut-off for these calls is given here.
How the values were obtained:
Saccharomyces cerevisiae [1] = test: DNA damaging activity against DNA repair-deficient RS 322YK (rad 52Y) yeast assessed as drug concentration required to produce 12 mm zone of inhibition up to 8000 ug/mL; assay type: functional, organism-based
Saccharomyces cerevisiae [2] = test: DNA damaging activity against DNA repair-deficient RS 321 yeast assessed as drug concentration required to produce 12 mm zone of inhibition up to 8000 ug/mL; assay type: functional, organism-based
Saccharomyces cerevisiae [3] = test: DNA damaging activity against DNA repair-deficient RS 167N (rad6) yeast assessed as drug concentration required to produce 12 mm zone of inhibition up to 8000 ug/mL; assay type: functional, organism-based
Saccharomyces cerevisiae [4] = test: DNA damaging activity against DNA repair-deficient RS 188N (RAD+) yeast assessed as drug concentration required to produce 12 mm zone of inhibition up to 8000 ug/mL; assay type: functional, organism-based
Saccharomyces cerevisiae [5] = test: DNA damaging activity against DNA repair-deficient RS 322YK (rad 52Y) yeast assessed as drug concentration required to produce 12 mm zone of inhibition; assay type: functional
Saccharomyces cerevisiae [6] = test: DNA damaging activity against DNA repair-deficient RS 321 yeast assessed as drug concentration required to produce 12 mm zone of inhibition; assay type: functional
Saccharomyces cerevisiae [7] = test: DNA damaging activity against DNA repair-deficient RS 167N (rad6) yeast assessed as drug concentration required to produce 12 mm zone of inhibition; assay type: functional
Saccharomyces cerevisiae [8] = test: DNA damaging activity against DNA repair-deficient RS 188N (RAD+) yeast assessed as drug concentration required to produce 12 mm zone of inhibition; assay type: functional

Row | Structure (SMILES) | Activity (Saccharomyces cerevisiae [1]) | Activity (Saccharomyces cerevisiae [2]) | Activity (Saccharomyces cerevisiae [3]) | Activity (Saccharomyces cerevisiae [4]) | IC12 (Saccharomyces cerevisiae [5]) [µg/mL] | IC12 (Saccharomyces cerevisiae [6]) [µg/mL] | IC12 (Saccharomyces cerevisiae [7]) [µg/mL] | IC12 (Saccharomyces cerevisiae [8]) [µg/mL]
1 | CC(=O)O[C@H]1CC[C@@]2(C)C(=CC[C@H]3[C@@H]4C[C@@H]5O[C@@]6(CC[C@@H](C)CN6C(C)=O)[C@@H](C)[C@@H]5[C@@]4(C)CC[C@@H]32)C1 | inactive | inactive | inactive | inactive | – | – | – | –
2 | C[C@@H]1CC[C@]2(NC1)O[C@H]1C[C@H]3[C@@H]4CC=C5C[C@@H](O)CC[C@]5(C)[C@H]4CC[C@]3(C)[C@H]1[C@@H]2C [SOLASODINE] | – | – | – | – | 5 | 1.9 | > 10 | > 6.1
3 | CC(=O)O[C@H]1CC[C@@]2(C)C(=CC[C@H]3[C@@H]4C[C@@H]5O[C@@]6(CC[C@@H](C)CN6)[C@@H](C)[C@@H]5[C@@]4(C)CC[C@@H]32)C1 | – | – | – | – | 21 | 3 | 30 | 15.7
4 | C[C@@H]1CC[C@]2(NC1)O[C@H]1C[C@H]3[C@@H]4CC=C5C[C@@H](O[C@@H]6O[C@H](CO)[C@@H](O)[C@H](O)[C@H]6O)CC[C@]5(C)[C@H]4CC[C@]3(C)[C@H]1[C@@H]2C | inactive | inactive | inactive | inactive | – | – | – | –
5 | CC[C@@]1(O)C(=O)OCc2c1cc1n(c2=O)Cc2cc3ccccc3nc2-1 [CAMPTOTHECIN] | – | – | – | – | 0.9 | – | – | 100
6 | CC(=O)N1C[C@H](C)CC[C@@]12O[C@H]1C[C@H]3[C@@H]4CC=C5C[C@@H](O)CC[C@]5(C)[C@H]4CC[C@]3(C)[C@H]1[C@@H]2C | inactive | inactive | inactive | inactive | – | – | – | –
